From ChEMBL document CHEMBL2401644, “Synthesis and biological evaluation of new chlorin derivatives as potential photosensitizers for photodynamic therapy” (Bioorg Med Chem, 2013)
Active and inactive are the calls of the source. No cut-off for these calls is given here.

Columns and labels:
[1] = Solubility of the compound in water; type: physicochemical
[2] = Biodistribution in serum of BALB/c mouse allografted with mouse C26 cells at 10 mg/kg, iv after 3 hrs; type: ADME, organism-based; parameters: dose 10 mg/kg, route intravenous; settings: read-out: Drug uptake
[3] = Biodistribution in serum of BALB/c mouse allografted with mouse C26 cells at 10 mg/kg, iv after 1 hr; type: ADME, organism-based; parameters: dose 10 mg/kg, route intravenous; settings: read-out: Drug uptake
Serum [4] = assay: Biodistribution in serum of BALB/c mouse allografted with mouse C26 cells at 10 mg/kg, iv after 1 to 24 hrs; type: ADME, organism-based; parameters: dose 10 mg/kg, route intravenous; settings: in vivo
Liver [5] = assay: Biodistribution in liver of BALB/c mouse allografted with mouse C26 cells at 10 mg/kg, iv after 1 to 24 hrs; type: ADME, organism-based; parameters: dose 10 mg/kg, route intravenous; settings: in vivo
Mus musculus [6] = assay: Biodistribution in tumor of BALB/c mouse allografted with mouse C26 cells at 10 mg/kg, iv after 1 to 24 hrs; type: ADME, organism-based, Neoplasm; parameters: dose 10 mg/kg, route intravenous; settings: in vivo
Serum [7] = assay: Biodistribution in serum of BALB/c mouse allografted with mouse C26 cells at 10 mg/kg, iv after 24 hrs; type: ADME, organism-based; parameters: dose 10 mg/kg, route intravenous; settings: in vivo
Zone of skin [8] = assay: Biodistribution in skin of BALB/c mouse allografted with mouse C26 cells at 10 mg/kg, iv after 24 hrs; type: ADME, organism-based; parameters: dose 10 mg/kg, route intravenous; settings: in vivo
Brain [9] = assay: Biodistribution in brain of BALB/c mouse allografted with mouse C26 cells at 10 mg/kg, iv after 24 hrs; type: ADME, organism-based; parameters: dose 10 mg/kg, route intravenous; settings: in vivo
Muscle tissue [10] = assay: Biodistribution in muscle of BALB/c mouse allografted with mouse C26 cells at 10 mg/kg, iv after 24 hrs; type: ADME, organism-based; parameters: dose 10 mg/kg, route intravenous; settings: in vivo
Spleen [11] = assay: Biodistribution in spleen of BALB/c mouse allografted with mouse C26 cells at 10 mg/kg, iv after 24 hrs; type: ADME, organism-based; parameters: dose 10 mg/kg, route intravenous; settings: in vivo
Lung [12] = assay: Biodistribution in lung of BALB/c mouse allografted with mouse C26 cells at 10 mg/kg, iv after 24 hrs; type: ADME, organism-based; parameters: dose 10 mg/kg, route intravenous; settings: in vivo
Kidney [13] = assay: Biodistribution in kidney of BALB/c mouse allografted with mouse C26 cells at 10 mg/kg, iv after 24 hrs; type: ADME, organism-based; parameters: dose 10 mg/kg, route intravenous; settings: in vivo
Liver [14] = assay: Biodistribution in liver of BALB/c mouse allografted with mouse C26 cells at 10 mg/kg, iv after 24 hrs; type: ADME, organism-based; parameters: dose 10 mg/kg, route intravenous; settings: in vivo
Zone of skin [15] = assay: Biodistribution in skin of BALB/c mouse allografted with mouse C26 cells at 10 mg/kg, iv after 3 hrs; type: ADME, organism-based; parameters: dose 10 mg/kg, route intravenous; settings: in vivo
Muscle tissue [16] = assay: Biodistribution in muscle of BALB/c mouse allografted with mouse C26 cells at 10 mg/kg, iv after 3 hrs; type: ADME, organism-based; parameters: dose 10 mg/kg, route intravenous; settings: in vivo
Brain [17] = assay: Biodistribution in brain of BALB/c mouse allografted with mouse C26 cells at 10 mg/kg, iv after 3 hrs; type: ADME, organism-based; parameters: dose 10 mg/kg, route intravenous; settings: in vivo
Lung [18] = assay: Biodistribution in lung of BALB/c mouse allografted with mouse C26 cells at 10 mg/kg, iv after 3 hrs; type: ADME, organism-based; parameters: dose 10 mg/kg, route intravenous; settings: in vivo
Spleen [19] = assay: Biodistribution in spleen of BALB/c mouse allografted with mouse C26 cells at 10 mg/kg, iv after 3 hrs; type: ADME, organism-based; parameters: dose 10 mg/kg, route intravenous; settings: in vivo
Kidney [20] = assay: Biodistribution in kidney of BALB/c mouse allografted with mouse C26 cells at 10 mg/kg, iv after 3 hrs; type: ADME, organism-based; parameters: dose 10 mg/kg, route intravenous; settings: in vivo
Mus musculus [21] = assay: Toxicity against BALB/c mouse allografted with mouse C26 cells assessed as cellular damage in kidney at 10 mg/kg, iv administered for 3 hrs followed by irradiation measured after 3 days by hematoxylin and eosin staining; type: organism-based; parameters: dose 10 mg/kg, route intravenous; settings: in vivo, 72 h
Mus musculus [22] = assay: Toxicity against BALB/c mouse allografted with mouse C26 cells assessed as cellular damage in liver at 10 mg/kg, iv administered for 3 hrs followed by irradiation measured after 3 days by hematoxylin and eosin staining; type: organism-based; parameters: dose 10 mg/kg, route intravenous; settings: in vivo, 72 h
C26 [23] = assay: Antitumor activity against mouse C26 cells allografted in BALB/c mouse assessed as sparsely distributed cell nuclei of tumor cells at 10 mg/kg, iv administered for 3 hrs followed by light irradiation measured after 3 days by hematoxylin and eosin staining relative to control; type: functional, organism-based; parameters: dose 10 mg/kg
C26 [24] = assay: Antitumor activity against mouse C26 cells allografted in BALB/c mouse assessed as poor nuclei staining of tumor cells at 10 mg/kg, iv administered for 3 hrs followed by light irradiation measured after 3 days by hematoxylin and eosin staining relative to control; type: functional, organism-based; parameters: dose 10 mg/kg
C26 [25] = assay: Antitumor activity against mouse C26 cells allografted in BALB/c mouse assessed as reduction in nuclei number of tumor cells at 10 mg/kg, iv administered for 3 hrs followed by light irradiation measured after 3 days by hematoxylin and eosin staining relative to control; type: functional, organism-based; parameters: dose 10 mg/kg
C26 [26] = assay: Antitumor activity against mouse C26 cells allografted in BALB/c mouse assessed as reduction in nuclei size of tumor cells at 10 mg/kg, iv administered for 3 hrs followed by light irradiation measured after 3 days by hematoxylin and eosin staining relative to control; type: functional, organism-based; parameters: dose 10 mg/kg
C26 [27] = assay: Antitumor activity against mouse C26 cells allografted in BALB/c mouse at 10 mg/kg, iv followed by light irradiation measured after 3 to 7 days; type: functional, organism-based; parameters: dose 10 mg/kg
[28] = Biodistribution in serum of BALB/c mouse allografted with mouse C26 cells at 10 mg/kg, iv after 6 hrs; type: ADME, organism-based; parameters: dose 10 mg/kg, route intravenous; settings: read-out: Drug uptake
[29] = Biodistribution in tumor of BALB/c mouse allografted with mouse C26 cells at 10 mg/kg, iv after 3 hrs; type: ADME, organism-based, Neoplasm; parameters: dose 10 mg/kg, route intravenous; settings: read-out: Drug uptake
Liver [30] = assay: Biodistribution in liver of BALB/c mouse allografted with mouse C26 cells at 10 mg/kg, iv after 3 hrs; type: ADME, organism-based; parameters: dose 10 mg/kg, route intravenous; settings: in vivo

`C=Cc1c(C)c2cc3nc(cc4[nH]c(cc5nc(cc1[nH]2)C(C)(O)/C5=C\C=N/OCC)c(C)c4CCC(=O)[O-])C(CCC(=O)[O-])=C3C.[Na+].[Na+]` (stereo unspecified) gave a solubility [1] of 10000 µg/mL, a concentration at 3 h [2] of 5900 ng/g and a concentration at 1 h [3] of 24200 ng/g. For the same compound, the Drug uptake (Serum [4]) was “Active”, the Drug uptake (Liver [5]) was “Active” and the Drug uptake (Mus musculus [6]) was “Active”.
In the case of `C=Cc1c(C)c2cc3nc(cc4[nH]c(cc5nc(cc1[nH]2)C(C)(O)/C5=C\C=N/OCC)c(C)c4CCC(=O)N(CC(=O)[O-])CC(=O)[O-])C(CCC(=O)N(CC(=O)[O-])CC(=O)[O-])=C3C.[Na+].[Na+].[Na+].[Na+]` (stereo unspecified), the solubility [1] is reported as 100000 µg/mL, the Drug uptake (Serum [7]) is reported as “Not Active” and the Drug uptake (Zone of skin [8]) is reported as “Not Active”. The Drug uptake (Brain [9]) was “Not Active”, the Drug uptake (Muscle tissue [10]) was “Not Active” and the Drug uptake (Spleen [11]) was “Not Active”. For the same compound, the Drug uptake (Lung [12]) was “Not Active”, the Drug uptake (Kidney [13]) was “Not Active” and the Drug uptake (Liver [14]) was “Not Active”. The Drug uptake (Zone of skin [15]) was “Active”, the Drug uptake (Muscle tissue [16]) was “Active” and the Drug uptake (Brain [17]) was “Active”. For the same compound, the Drug uptake (Lung [18]) was “Active”, the Drug uptake (Spleen [19]) was “Active” and the Drug uptake (Kidney [20]) was “Active”. For the same compound, the Activity (Mus musculus [21]) was “Non-toxic”, the Activity (Mus musculus [22]) was “Non-toxic” and the Activity (C26 [23]) was “Active”. The Activity (C26 [24]) was “Active”, the Activity (C26 [25]) was “Active” and the Activity (C26 [26]) was “Active”. The TGI (C26 [27]) was “Active”, the concentration at 6 h [28] was 3400 ng/g and the concentration at 3 h [2] was 8400 ng/g. The concentration at 1 h [3] was 17200 ng/g, the concentration at 3 h [29] was 690 ng/g and the Drug uptake (Mus musculus [6]) was “Active”. The Drug uptake (Liver [30]) was “Active”.
In the case of `C=Cc1c(C)c2cc3nc(cc4[nH]c(cc5nc(cc1[nH]2)C(C)(O)/C5=C\CO)c(C)c4CCC(=O)[O-])C(CCC(=O)[O-])=C3C.[Na+].[Na+]` (stereo unspecified), the solubility [1] is reported as 10000 µg/mL and the Drug uptake (Mus musculus [6]) is reported as “Not Active”.
